Data taken from US12686680B2, “Substituted pyrazolo[1,5-α]pyrimidines as CRF receptor antagonists” (Neurocrine Biosciences, Inc., priority 2019, dated 2026).

What was measured:
CRF1 receptor = target: T1, CRF1 receptor (Homo sapiens, UniProt P34998); experiment: CRF1 receptor binding kinetics (association/dissociation rate constants, method of Fleck et al.); conditions: for Ki: Ki=k−1/k1, read-out: Kinetic Ki; for k1: association rate constant; for k^−1: dissociation rate constant
T1 sequence (P34998 24-415): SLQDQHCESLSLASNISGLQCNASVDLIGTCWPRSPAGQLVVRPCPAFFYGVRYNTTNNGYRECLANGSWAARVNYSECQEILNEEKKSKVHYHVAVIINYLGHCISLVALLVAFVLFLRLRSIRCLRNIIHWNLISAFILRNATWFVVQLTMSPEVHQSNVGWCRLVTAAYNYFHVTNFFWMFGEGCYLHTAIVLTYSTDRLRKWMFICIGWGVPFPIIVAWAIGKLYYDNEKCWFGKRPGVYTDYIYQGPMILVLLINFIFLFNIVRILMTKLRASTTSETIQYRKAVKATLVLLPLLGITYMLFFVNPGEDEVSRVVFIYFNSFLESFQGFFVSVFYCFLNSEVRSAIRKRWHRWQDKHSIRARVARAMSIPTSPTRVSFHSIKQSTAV
Protocol: The association (k1) and dissociation (k−1) rate constants defining binding of the Compounds to the CRF1 receptor were determined by the method described in Fleck et al. (J. Pharmacology and Experimental Therapeutics, 341(2):518-531, 2012) (hereinafter “Fleck et al.” and incorporated by reference in its entirety). As described therein, the activity of a CRF1 receptor antagonist can be expressed as the kinetically derived affinity (Ki) calculated from the association (k1) and dissociation (k−1) rate constants by the following equation: Ki=k−1/k1
The Compounds listed in Table 5 were evaluated according to these procedures, and the kinetic Ki was determined and found to be as follows: […]

ADX rats = experiment: Lowering of ACTH in adrenalectomized rats; type: in vivo; conditions: oral, 10 mg/kg single dose, n=11/group
[1] = pKa determination, SiriusT3 UV-metric and pH-metric co-solvent titration; type: physicochemical; conditions: water:CH3OH co-solvent mixtures
Protocol: The pKa was determined using a SiriusT3 (Serial: T317136) with a UV-metric co-solvent titration assay and a pH-metric co-solvent titration assay. For the UV-metric, 10 mM sample was prepared in DMSO with phosphate buffer and placed on the instrument along with a blank prepared with the same composition, absent compound. For pH-metric, an appropriate weight of sample was added to a glass vial to meet buffer capacity requirements, absent of diluent. For each test, pKa was measured in three water:CH3OH ratios. The reported pKas are extrapolated graphically via the Yasuda-Shedlovsky method.

Structure (SMILES) | Ki (CRF1 receptor) | k1 (CRF1 receptor) | k^−1 (CRF1 receptor) | pKa ([1]; UV-metric method, Yasuda-Shedlovsky extrapolation from water:CH3OH) | pKa ([1]; overall, two methods) | pKa ([1]; pH-metric method, Yasuda-Shedlovsky extrapolation from water:CH3OH) | duration of lowering of plasma ACTH levels (ADX rats) | plasma ACTH levels (ADX rats)
CCCN(Cc1ccc(-c2cccnc2)cc1)c1cc(C)nc2c(-c3cnc(N(C)C)cc3C)c(C)nn12 [Compound 2, 5-{2,5-dimethyl-7-[propyl({[4-(pyridin-3-yl)phenyl]methyl})amino]pyrazolo[1,5-a]pyrimidin-3-yl}-N,N,4-trimethylpyridin-2-amine] | < 0.19 nM | 5.3 ± 0.78 10^6M^−1min^−1 | <0.001 min⁻¹ | – | – | – | – | –
CCCN(Cc1ccc(-c2ccccn2)cc1)c1cc(C)nc2c(-c3cnc(N(C)C)cc3C)c(C)nn12 [Compound 3, 5-{2,5-dimethyl-7-[propyl({[4-(pyridin-2-yl)phenyl]methyl})amino]pyrazolo[1,5-a]pyrimidin-3-yl}-N,N,4-trimethylpyridin-2-amine] | < 0.36 nM | 2.9 ± 0.92 10^6M^−1min^−1 | <0.001 min⁻¹ | – | – | – | – | –
CCCN(Cc1ccc(-c2csc(N(C)C)n2)cc1)c1cc(C)nc2c(-c3cnc(N(C)C)cc3C)c(C)nn12 [Compound 1, 5-{7-[({4-[2-(dimethylamino)-1,3-thiazol-4-yl]phenyl}methyl)(propyl)amino]-2,5-dimethylpyrazolo[1,5-a]pyrimidin-3-yl}-N,N,4-trimethylpyridin-2-amine] | < 0.22 nM | 4.9 ± 1.7 10^6M^−1min^−1 | <0.001 min⁻¹ | 4.07 ± 0.06 | ~4.1 | 4.06 ± 0.08 | up to 5 hours | significantly lowered
CCCN(Cc1ccc(-c2ccccc2)cc1)c1cc(C)nc2c(-c3cnc(N(C)C)cc3C)c(C)nn12 [Compound 8, 5-(2,5-dimethyl-7-{[(4-phenylphenyl)methyl](propyl)amino}pyrazolo[1,5-a]pyrimidin-3-yl)-N,N,4-trimethylpyridin-2-amine] | < 0.12 nM | 9.1 ± 4.1 10^6M^−1min^−1 | <0.001 min⁻¹ | – | – | – | – | –

Now from value to molecule, other results behind:

Ki (CRF1 receptor) | k1 (CRF1 receptor) | k^−1 (CRF1 receptor) | pKa ([1]; UV-metric method, Yasuda-Shedlovsky extrapolation from water:CH3OH) | pKa ([1]; overall, two methods) | pKa ([1]; pH-metric method, Yasuda-Shedlovsky extrapolation from water:CH3OH) | Structure (SMILES) | duration of lowering of plasma ACTH levels (ADX rats) | plasma ACTH levels (ADX rats)
< 0.29 nM | 3.5 ± 1.1 10^6M^−1min^−1 | <0.001 min⁻¹ | – | – | – | CCCN(Cc1ccc(-n2cccn2)cc1)c1cc(C)nc2c(-c3cnc(N(C)C)cc3C)c(C)nn12 [Compound 9, 5-{2,5-dimethyl-7-[propyl({[4-(1H-pyrazol-1-yl)phenyl]methyl})amino]pyrazolo[1,5-a]pyrimidin-3-yl}-N,N,4-trimethylpyridin-2-amine] | – | –
0.95 nM | 2.2 10^6M^−1min^−1 | 0.0021 min⁻¹ | – | – | – | CCCN(Cc1ccc(-n2cncn2)cc1)c1cc(C)nc2c(-c3cnc(N(C)C)cc3C)c(C)nn12 [Compound 10, 5-{2,5-dimethyl-7-[propyl({[4-(1H-1,2,4-triazol-1-yl)phenyl]methyl})amino]pyrazolo[1,5-a]pyrimidin-3-yl}-N,N,4-trimethylpyridin-2-amine] | – | –
0.72 nM | 2.4 +/− 0.2 10^6M^−1min^−1 | 0.0017 min⁻¹ | – | – | – | CCCN(Cc1ccc(-c2csc(NC)n2)cc1)c1cc(C)nc2c(-c3cnc(N(C)C)cc3C)c(C)nn12 [Compound 11, 5-{2,5-dimethyl-7-[({4-[2-(methylamino)-1,3-thiazol-4-yl]phenyl}methyl)(propyl)amino]pyrazolo[1,5-a]pyrimidin-3-yl}-N,N,4-trimethylpyridin-2-amine] | – | –
